Data published in the NIST ThermoML archive (doi:10.1021/je200121f).
“And” between values parts separate entries of the source, which are not always exact repeats. Equal values may be shown once. Numbers after ± are expanded uncertainties.

Experiments:
[1] = refractive index (Na D-line) (dimensionless); xn = mol fraction of the nth substance listed; conditions: 101 kPa, Liquid, Standard Abbe refractometry, x1 = 1
[2] = xn = mol fraction of the nth substance listed; conditions: x1 = 1; for surface tension liquid-gas: Ring tensiometer; for viscosity / speed of sound / mass density: 101 kPa, Liquid; for viscosity: Capillary tube (Ostwald / Ubbelohde) method; for speed of sound: Sing-around technique in a fixed-path interferometer; for mass density: Vibrating tube method
[3] = for surface tension liquid-gas: Ring tensiometer; for viscosity / speed of sound / mass density: 101 kPa, Liquid; for viscosity: Capillary tube (Ostwald / Ubbelohde) method; for speed of sound: Sing-around technique in a fixed-path interferometer; for mass density: Vibrating tube method
[4] = refractive index (Na D-line) (dimensionless); conditions: 101.33 kPa, Liquid, Standard Abbe refractometry

CN1CCCC1=O [N-methylpyrrolidone] + C[C@H](O)CN
Conditions | mass density, [2] [kg/m3] | refractive index, [1] | speed of sound, [2] [m/s] | surface tension liquid-gas, [2] [mN/m] | viscosity, [2] [mPa·s]
293.15 K | 1033.6 ± 0.5 | 1.4688 ± 0.0005 | 1567.9 ± 2.9 | 42.7 ± 0.6 | 1.899 ± 0.018
303.15 K | 1024.7 ± 0.5 | 1.4657 ± 0.0006 | 1529.7 ± 2.9 | 41.5 ± 0.6 | 1.592 ± 0.015
313.15 K | 1015.7 ± 0.5 | 1.4621 ± 0.0006 | 1491.2 ± 2.9 | 40.8 ± 0.6 | 1.353 ± 0.013
323.15 K | 1006.8 ± 0.5 | 1.4579 ± 0.0006 | 1454.6 ± 2.9 | 40 ± 0.6 | 1.17 ± 0.011

CN1CCCC1=O [N-methylpyrrolidone]
Conditions | mass density, [3] [kg/m3] | refractive index, [4] | speed of sound, [3] [m/s] | surface tension liquid-gas, [3] | viscosity, [3] [mPa·s]
293.15 K | 1033.6 ± 0.5 | 1.4688 ± 0.0005 | 1567.9 ± 2.9 | 42.7 ± 0.6 mN/m | 1.899 ± 0.018
303.15 K | 1024.7 ± 0.5 | 1.4657 ± 0.0006 | 1529.7 ± 2.9 | 41.5 ± 0.6 mN/m and 41.3 ± 0.6 mN/m | 1.592 ± 0.015
313.15 K | 1015.7 ± 0.5 | 1.4621 ± 0.0006 | 1491.2 ± 2.9 | 40.8 ± 0.6 mN/m and 41 ± 0.6 mN/m | 1.353 ± 0.013
323.15 K | 1006.8 ± 0.5 | 1.4579 ± 0.0006 | 1454.6 ± 2.9 | 40 ± 0.6 mN/m and 39.8 ± 0.6 mN/m | 1.17 ± 0.011

CC(O)CNCC(C)O (stereo not given) [N-(2-hydroxypropyl)-2-hydroxy-1-propanamine]
323.15 K
Conditions | mass density [kg/m3] | refractive index | speed of sound [m/s] | surface tension liquid-gas [mN/m] | viscosity [mPa·s]
[3] | 984.1 ± 0.9 | – | 1420.3 ± 3.4 | 34.5 ± 0.6 | 125.73 ± 3.3
[4] | – | 1.4512 ± 0.0008 | – | – | –

CN1CCCC1=O [N-methylpyrrolidone] + CC(O)CNCC(C)O
Conditions | mass density, [2] [kg/m3] | refractive index, [1] | speed of sound, [2] [m/s] | surface tension liquid-gas, [2] [mN/m] | viscosity, [2] [mPa·s]
293.15 K | 1033.6 ± 0.5 | 1.4688 ± 0.0005 | 1567.9 ± 2.9 | 42.7 ± 0.6 | 1.899 ± 0.018
303.15 K | 1024.7 ± 0.5 | 1.4657 ± 0.0006 | 1529.7 ± 2.9 | 41.3 ± 0.6 | 1.592 ± 0.015
313.15 K | 1015.7 ± 0.5 | 1.4621 ± 0.0006 | 1491.2 ± 2.9 | 41 ± 0.6 | 1.353 ± 0.013
323.15 K | 1006.8 ± 0.5 | 1.4579 ± 0.0006 | 1454.6 ± 2.9 | 39.8 ± 0.6 | 1.17 ± 0.011

C[C@H](O)CN [(2S)-1-amino-2-propanol]
Conditions | mass density, [3] [kg/m3] | refractive index, [4] | speed of sound, [3] [m/s] | surface tension liquid-gas, [3] [mN/m] | viscosity, [3] [mPa·s]
293.15 K | 960.8 ± 0.8 | 1.448 ± 0.0007 | 1560.8 ± 3.4 | 37.6 ± 0.6 | 31.67 ± 0.46
303.15 K | 952.8 ± 0.8 | 1.4442 ± 0.0007 | 1528.3 ± 3.4 | 36.9 ± 0.6 | 17.71 ± 0.29
313.15 K | 944.7 ± 0.8 | 1.4401 ± 0.0007 | 1495.7 ± 3.4 | 36.3 ± 0.6 | 10.65 ± 0.16
323.15 K | 936.5 ± 0.8 | 1.436 ± 0.0007 | 1462.9 ± 3.4 | 35.9 ± 0.6 | 6.961 ± 0.11
